According to patent US9113629B2, “4-amino-6-(4-substituted-phenyl)-picolinates and 6-amino-2-(4-substituted-phenyl)-pyrimidine-4-carboxylates and their use as herbicides” (DOW AGROSCIENCES LLC, priority 2013, dated 2015):
Where two headings read alike, the source gives them in different places.

Columns and labels:
[1] = test system: Key Broadleaf Weed and Crop Species; assay: Post-emergent Test II herbicidal activity (Table 5); format: in vivo; conditions: post-emergence, 336 h, post-emergent, 14 days after application; for pest or weed control at 70 g/ha: 70 g ai/ha; for pest or weed control at 140 g/ha: 140 g ai/ha
In short: (§1)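 Percent injury, 0 (none) to 100 (complete kill), was judged visually 14 d after spraying young plants at the first or second true leaf stage with compound in an acetone/DMSO aqueous carrier at 187 L/ha. Plants were kept in a greenhouse at 23–29 °C by day.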

[2] = test system: Key Grass and Sedge Weeds as well as Grass Crops; assay: Post-emergent Test II herbicidal activity (Table 6); format: in vivo; conditions: post-emergence, 336 h; for pest or weed control at 70 g/ha: application rate 70 g ai/ha; for pest or weed control at 140 g/ha: application rate 140 g ai/ha
In short: as §1

[3] = ABUTH: velvetleaf (Abutilon theophrasti), read-out: Visual Growth Reduction (%) 14 Days After Application ABUTH
[4] = AMARE: redroot pigweed (Amaranthus retroflexus), read-out: Visual Growth Reduction (%) 14 Days After Application AMARE
[5] = BRSNN: oilseed-rape, canola (Brassica napus), read-out: Visual Growth Reduction (%) 14 Days After Application BRSNN
[6] = CHEAL: lambsquarters (Chenopodium album), read-out: Visual Growth Reduction (%) 14 Days After Application CHEAL
[7] = EPHHL: wild poinsettia (Euphorbia heterophylla), read-out: Visual Growth Reduction (%) 14 Days After Application EPHHL
[8] = HELAN: sunflower (Helianthus annuus), read-out: Visual Growth Reduction (%) 14 Days After Application HELAN
[9] = VIOTR: wild pansy (Viola tricolor), read-out: Visual Growth Reduction (%) 14 Days After Application VIOTR
[10] = CYPES: yellow nutsedge (Cyperus esculentus), read-out: Visual Growth Reduction (%) 14 Days After Application, CYPES
[11] = DIGSA: crabgrass (Digitaria sanguinalis), read-out: Visual Growth Reduction (%) 14 Days After Application, DIGSA
[12] = ECHCG: barnyardgrass (Echinochloa crus-galli), read-out: Visual Growth Reduction (%) 14 Days After Application, ECHCG
[13] = ORYSA: rice (Oryza sativa), read-out: Visual Growth Reduction (%) 14 Days After Application, ORYSA
[14] = SETFA: giant foxtail (Setaria faberi), read-out: Visual Growth Reduction (%) 14 Days After Application, SETFA
[15] = SORVU: grain sorghum (Sorghum vulgare), read-out: Visual Growth Reduction (%) 14 Days After Application, SORVU
[16] = TRZSS (wheat, Triticum aestivum), read-out: Visual Growth Reduction (%) 14 Days After Application, TRZSS
[17] = ZEAMX: maize, corn (Zea mays), read-out: Visual Growth Reduction (%) 14 Days After Application, ZEAMX

Row | SMILES | pest or weed control at 70 g/ha [1, 3] [%] | pest or weed control at 140 g/ha [1, 3] [%] | pest or weed control at 70 g/ha [1, 4] [%] | pest or weed control at 140 g/ha [1, 4] [%] | pest or weed control at 70 g/ha [1, 5] [%] | pest or weed control at 140 g/ha [1, 5] [%] | pest or weed control at 70 g/ha [1, 6] [%] | pest or weed control at 140 g/ha [1, 6] [%] | pest or weed control at 70 g/ha [1, 7] [%] | pest or weed control at 140 g/ha [1, 7] [%] | pest or weed control at 70 g/ha [1, 8] [%] | pest or weed control at 140 g/ha [1, 8] [%] | pest or weed control at 70 g/ha [1, 9] [%] | pest or weed control at 140 g/ha [1, 9] [%] | pest or weed control at 70 g/ha [2, 10] [%] | pest or weed control at 140 g/ha [2, 10] [%] | pest or weed control at 70 g/ha [2, 11] [%] | pest or weed control at 140 g/ha [2, 11] [%] | pest or weed control at 70 g/ha [2, 12] [%] | pest or weed control at 140 g/ha [2, 12] [%] | other results
1 | COC(=O)c1nc(-c2cc(F)c(C(F)F)cc2F)cc(N)c1Cl [Compound 205] | 95 to 100 | 95 to 100 | 95 to 100 | 95 to 100 | 60 to 74 | 85 to 94 | 95 to 100 | 95 to 100 | 95 to 100 | 95 to 100 | 85 to 94 | 95 to 100 | 45 to 59 | 60 to 74 | 85 to 94 | 95 to 100 | 30 to 44 | 45 to 59 | 85 to 94 | 85 to 94 | pest or weed control at 70 g/ha [2, 13]: 0 to 29%; pest or weed control at 140 g/ha [2, 13]: 0 to 29%; pest or weed control at 70 g/ha [2, 14]: 45 to 59%; pest or weed control at 140 g/ha [2, 14]: 75 to 84%; pest or weed control at 70 g/ha [2, 15]: 60 to 74%; pest or weed control at 140 g/ha [2, 15]: 75 to 84%; pest or weed control at 70 g/ha [2, 16]: 0 to 29%; pest or weed control at 140 g/ha [2, 16]: 30 to 44%; pest or weed control at 70 g/ha [2, 17]: 30 to 44%; pest or weed control at 140 g/ha [2, 17]: 60 to 74%; melting point: 141.8 to 145 °C
2 | COC(=O)c1nc(-c2cc(F)c(C#N)cc2F)nc(N)c1OC [Compound 208] | 0 to 29 | 0 to 29 | 0 to 29 | 0 to 29 | 0 to 29 | 0 to 29 | 0 to 29 | 0 to 29 | 30 to 44 | 45 to 59 | 0 to 29 | 45 to 59 | 0 to 29 | 0 to 29 | 0 to 29 | 0 to 29 | 0 to 29 | 0 to 29 | 0 to 29 | 0 to 29 | pest or weed control at 70 g/ha [2, 13]: 0 to 29%; pest or weed control at 140 g/ha [2, 13]: 0 to 29%; pest or weed control at 70 g/ha [2, 14]: 0 to 29%; pest or weed control at 140 g/ha [2, 14]: 0 to 29%; pest or weed control at 70 g/ha [2, 15]: 0 to 29%; pest or weed control at 140 g/ha [2, 15]: 0 to 29%; pest or weed control at 70 g/ha [2, 16]: 0 to 29%; pest or weed control at 140 g/ha [2, 16]: 0 to 29%; pest or weed control at 70 g/ha [2, 17]: 0 to 29%; pest or weed control at 140 g/ha [2, 17]: 0 to 29%; melting point: 165 to 166.5 °C
